The source of these data is the METLIN SMRT retention time set (Domingo-Almenara et al. 2019).

Each structure is given as a SMILES string.

The series can be described thus: gradient 5% acetonitrile 3 min, to 50% in 2 min, to 85% in 15 min, held 3 min, 100 µL/min. The conditions noted are these: column: Zorbax Extend-C18 2.1 x 50 mm; eluents: water / acetonitrile, 0.1% formic acid. In outline: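 Data were gathered over 3 months by HPLC coupled to a quadrupole time-of-flight mass spectrometer, operated in positive and negative ionization mode. Mixtures of ~100 pure standards ran on a Zorbax Extend-C18 column (2.1 × 50 mm, 1.8 μm) at 100 μL/min, with water and acetonitrile each containing 0.1% formic acid and dead and dwell volumes of 40 μL and 900 μL. Retention time was read from adduct peaks picked by computer and checked manually.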
`Cc1ccc(NC(=O)c2cn3c(n2)CCCC3)cc1` came in with an RP-LC retention time of 606 s.
The result for `COCCn1cc(CC(=O)Nc2cccc(SC)c2)c2cccnc21` reads 787 s; that for `Cc1cc(OCC(O)CNCc2ccco2)ccc1Cl` (stereo not drawn), 588 s.
The value for `COC(=O)C1=C(C)NC(C)=C(C(=O)OCCN2CCN(C(c3ccccc3)c3ccccc3)CC2)C1c1cccc([N+](=O)[O-])c1` (stereo not drawn) was 1020 s.
The value for `Cc1cccc2c1ncn1c(=O)n(CC(=O)NCc3ccccc3Cl)nc21` was 627 s; that for `COc1ccc(-c2cn3c(CC(=O)N4CCCCC4)csc3n2)cc1OC` was 666 s.
On to `Cc1ccc2nc(C(=O)NCc3ccc(OC(C)C)cc3)cn2c1`, for which the RP-LC retention time was determined as 731 s.
Consider `COCCn1nc(N2CCCC(NS(=O)(=O)c3c(C)c(C)cc(C)c3C)C2)ccc1=O` (stereo not drawn), for which the RP-LC retention time came to 875 s.
`COC(=O)c1ccc(C(=O)Nc2nnc(-c3cccs3)o2)cc1` gave an RP-LC retention time of 710 s.
The molecule `CC(C)N1CCN(C(=O)c2cnc(-c3ccccc3)nc2-c2ccncc2)CC1` came in with an RP-LC retention time of 626 s.
The result for `COCCN1C(=O)Cc2ccccc2C1C(=O)NCc1cccs1` (stereo not drawn) reads 715 s; that for `Cn1cc(C(CNC(=O)Nc2cccc(Br)c2)c2cccnc2)c2ccccc21` (stereo not drawn), 755 s; that for `CCn1c(N2CCN(C(=O)NCc3ccccc3)CC2)nc2ccccc21`, 646 s.
The value for `Cc1ccc(CNC(=O)c2ccc(=O)n(CCN3CCCC3)c2)cc1` was 614 s; that for `O=C(CCc1nc(-c2ccc(N3CCCCC3)cc2)no1)N1CCC2(CC1)OCCO2` was 798 s.
The value for `O=C(C1CCC1)N1CC(N(Cc2ccncc2)CC2CC2)C1` was 590 s; that for `Cc1ccc(S(=O)(=O)N2CCc3c(c(-c4nnc(-c5ccccc5)o4)nn3C)C2)cc1C` was 1020 s; that for `CC1=C(c2ccc(C)cc2)S(=O)(=O)N=C1N1CCCN(C(=O)NCCC(C)C)CC1` was 895 s.
In turn, `CCS(=O)(=O)c1ccc(-c2ccc(NC(=O)c3ccc(Br)o3)cc2)nn1` displayed an RP-LC retention time of 765 s.
As to `CCOC(=O)C1CCCN(C(=O)C2c3ccccc3C(=O)N3CCc4cc(OC)c(OC)cc4C23)C1` (stereo not drawn), the RP-LC retention time came out at 766 s.
Molecule `CCc1noc(NC(C)=O)c1-c1ccc(C)c(S(=O)(=O)N2CCOCC2)c1` yielded an RP-LC retention time of 743 s.
Regarding `Cc1cc2nn(CC(=O)Nc3ccc(F)c(Cl)c3)c(=O)n2c(N2CCCC2)n1`, the RP-LC retention time is 836 s.
Consider `O=C(c1cccc(N2C(=O)CCS2(=O)=O)c1)N1CCN(c2ccccn2)CC1`, for which the RP-LC retention time was found to be 726 s.
The result for `Cc1cc(C2CCCN2C(=O)Nc2ccccc2C)on1` (stereo not drawn) reads 748 s; that for `CCn1c(=O)sc2cc(S(=O)(=O)N3CCC(C(=O)N4CCN(C)CC4)CC3)ccc21`, 600 s; that for `COc1cc(C(=O)N(Cc2ccc(C(C)C)cc2)C2CCS(=O)(=O)C2)cc(OC)c1OC` (stereo not drawn), 968 s.
The result for `Cn1nc(C2CCCN(C(=O)c3ccco3)C2)n(C2CCCC2)c1=O` (stereo not drawn) reads 701 s; that for `O=c1c(Br)c(-c2ccccc2)[nH]c2ccccc12`, 715 s; that for `O=C(NCc1ccccc1Cl)C(=O)N1CCN(Cc2ccc3c(c2)OCO3)CC1`, 583 s.
The value for `Cc1ccc(C)c(NC(=O)C2CC(=O)N(c3ccc4c(c3)CCN4C(=O)C3CC3)C2)c1` (stereo not drawn) was 768 s; that for `Cc1nnc(C2CC3(CCN(CC(C)C)CC3)CN2CCc2ccccc2)o1` (stereo not drawn) was 612 s; that for `Cc1cc2[nH]c(C(=O)Nc3cccc(Cl)c3C)c(CN3CCOCC3)c2s1` was 748 s.
Turning to `COCC1CN(S(=O)(=O)Cc2ccccc2F)CC12CCNCC2` (stereo not drawn), the RP-LC retention time was determined as 575 s.
